Measured values: patent publication US20240398981A1, “NOVEL NANOPARTICLES OF ANTIRETROVIRAL DRUGS, THEIR PREPARATION AND THEIR USE FOR THE TREATMENT OF VIRAL INFECTIONS” (CENTRE NATIONAL DE LA RECHERCHE SCIENTIFIQUE, priority 2018, published 2024)

Columns and labels:
[1] = tested on: CCR5; assay: Surface expression of HIV-1 coreceptor on treated macrophages (flow cytometry); format: cell-based, human
Experimental: (§1) FIG. 3 represents the inhibition of HIV-1 replication in AZT-NP-treated macrophages. Monocyte-derived macrophages were infected with CCR5-tropic HIV-1Ba-L for 3 h. After several washes, increasing concentrations of AZT derivatives were added to infected macrophages for 6 days of culture. The level of virus replication was monitored in culture supernatants by the p24 antigen capture ELISA. The infection inhibition is expressed as percentage of the average of three independent experiments (A). The frequency of infected cells was determined by flow cytometry after a costaining of macrophages with mAbs anti-CD206 (a marker of macrophages) and mAbs anti-p24 which target intracellular HIV-1 (B). Addition of AZT derivatives was followed by the increase of the size of macrophages as assessed by the Forward-Scattered light parameter (FSC) in flow cytometry (C). […] Using flow cytometry, the expression of the two HIV-1 coreceptors CCR5 (E) and CXCR4 (F) was determined at the surface of AZT derivatives-treated macrophages.
Following six days of infection, the frequency of HIV-1-infected cells was determined by flow cytometry to detect intracellular HIV-1 p24 molecule. […] Stained cells were immediately acquired on a FACScalibur (Becton Dickinson) and analyzed with FlowJo software.

[2] = tested on: HIV-1; settings: DCs infected, then treated with increasing concentrations, T cells added, 6 days
Experimental: The question of the impact of NP on HIV-1 transmission from DCs to autologous T cells was addressed. DCs were first infected with HIV-1, then incubated with increasing concentrations of AZT derivatives before T cells were added.
To assess the transmission of HIV-1 from DCs to autologous T-cells, DCs were incubated into 96-well culture plates (1×10^5 cells/well) and infected with HIV-1 (1 ng p24 antigen) for 3 h at 37° C. in a 5% CO2 atmosphere. Following four washes, DCs were shortly incubated with increasing concentrations of indicated molecules or AZT (2 μM), and autologous stimulated T cells were added onto HIV-exposed DCs at DC: T-cell ratio of 1:5. Cells were cultured for 6 days. Each sample was performed in triplicate. Culture supernatants were harvested every 3 days and fresh medium with compounds was added. Supernatants were inactivated with 1% Triton X-100 and frozen at −20° C. Viral production by T lymphocytes was evaluated at the sixth day of the co-culture by measurement of p24 antigen in supernatants using capture ELISA.

[3] = tested on: HIV-1BaL; assay: Inhibition of HIV-1 infection in monocyte-derived macrophages; format: cell-based; settings: six days of culture, p24 in supernatants, dose-dependent
Experimental: as §1
After 6 days of activation or differentiation, cells were washed twice and seeded into 96-well culture plates ([…]). […] The level of virus replication was monitored by HIV-1 p24 antigen ELISA.
Following six days of infection, the frequency of HIV-1-infected cells was determined by flow cytometry to detect intracellular HIV-1 p24 molecule. […]

[4] = tested on: J774A.1 mouse macrophages; assay: [3H]-AZT-TP cellular uptake; format: cell-based; settings: J774A.1 cells, up to 8 hour exposure
Experimental: Nanoparticles containing [methyl-^3H]-AZT-TP were prepared and purified as described above then diluted 1:10 in cell culture medium (in order to maintain cell viability above 80% as determined by MTT tests), so to have 70 nCi/well. A control solution of AZT-TP at the same final radioactivity concentration was used for comparison.
Cells were recovered from the culture flasks, counted and seeded in 6-well plates, at a surface density of 800,000 cells/well for J774A.1 and 160,000 for THP-1 using 2 mL medium per well. After 24 h incubation, the medium was withdrawn and 2 mL of AZT-TP nanoparticles or free AZT-TP were added in each well. Nanoparticles and AZT-TP were incubated with cells for 2 and 8 hours, after which the uptake was stopped by removing the cell culture medium. The cells were washed twice with PBS (Lonza) to remove loosely bound compounds and then lysed with 1 mL Solvable (Perkin-Elmer, France). The radioactivity of the supernatant medium, the washing supernatants and the cell lysate were counted. The uptake kinetics of nanoparticle AZT-TP was studied for 2 and 8 hours and compared to that of free AZT-TP.

SMILES	expression of HIV-1 coreceptor CCR5 at macrophage surface [1]	production of HIV-1 after transmission from DCs to autologous T cells [2]	production of HIV-1 by macrophages [3]	AZT-TP uptake [4]
Cc1cn([C@H]2C[C@H](N=[N+]=[N-])[C@@H](CO)O2)c(=O)[nH]c1=O [AZT, zidovudine]	did not interfere	inhibited	inhibited	–
Cc1cn([C@H]2C[C@H](N=[N+]=[N-])[C@@H](COP(=O)(O)OP(=O)(O)OP(=O)(O)O)O2)c(=O)[nH]c1=O [AZT-TP]	did not interfere	inhibited	inhibited	around 3 nmol per million cells
